In article PMC10254531, “The Effects of 1-O-Acetylbritannilactone Isolated from Inula britannica Flowers on Human Neutrophil Elastase and Inflammation of RAW 264.7 Cells and Zebrafish Larvae” (Molecules, 2023):

Columns and labels:
[1] = biological target: T1, human neutrophil elastase (HNE) (Homo sapiens, UniProt P08246); experiment: chromogenic enzyme assay with MeO-Suc-AAPV-pNA; Lineweaver-Burk and Dixon plots; assay type: biochemical
T1 construct: gene ELANE
T1 sequence (P08246 30-247): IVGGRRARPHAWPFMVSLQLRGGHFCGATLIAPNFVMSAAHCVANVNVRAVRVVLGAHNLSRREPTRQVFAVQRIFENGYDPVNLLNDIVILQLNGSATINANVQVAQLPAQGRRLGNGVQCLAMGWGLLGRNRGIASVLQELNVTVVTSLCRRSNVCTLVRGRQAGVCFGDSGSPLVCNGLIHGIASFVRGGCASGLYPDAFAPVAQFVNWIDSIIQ

[2] = biological target: T1, human neutrophil elastase (HNE); experiment: chromogenic enzyme assay with MeO-Suc-AAPV-pNA (positive control); assay type: biochemical

C=C1C(=O)O[C@@H]2CC(C)=C([C@@H](C)CCCOC(C)=O)[C@@H](O)[C@H]12 [ABL, 1-O-acetylbritannilactone]
Ki [1]: 2.4 µM

O=C(O[C@@H]1Cc2c(O)cc(O)cc2O[C@@H]1c1cc(O)c(O)c(O)c1)c1cc(O)c(O)c(O)c1 [epigallocatechin gallate]
IC50 [2]: 7.2 ± 0.5 µM
